According to patent US8586588B2, “Aryl pyridazinone derivatives and their use as H3 receptor ligands” (Cephalon, Inc., priority 2006, dated 2013):
Where “and” joins values, the source holds several entries; their conditions need not be identical. Identical values can stand only once.

How the values were obtained:
[1] = target: T1, rat histamine H3 receptor (Rattus norvegicus, UniProt Q9QYN8); experiment: Rat H3 radioligand binding ([3H]-N-alpha-methylhistamine, CHO-A3 cell membranes, SPA); conditions: Table B, binding constant as letter class; read-out: rat H3 Ki
T1 construct: encoding the entire 445-amino-acid rat histamine H3 receptor; expressed in transfected cells
Outline: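 Membranes from CHO-A3 cells stably expressing rat H3 (10 μg protein) incubated 4 h at room temperature in 50 mM Tris-HCl pH 7.4, 5 mM MgCl2, 0.1% BSA with ~1 nM [3H]-N-alpha-methylhistamine and compound (0.01 nM-30 μM). Bound radioligand read by scintillation proximity; nonspecific binding with 10 μM clobenpropit.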

human H3 receptor = target: T2, human H3 receptor (Homo sapiens, UniProt Q9Y5N1); experiment: Human H3 radioligand binding ([3H]-N-alpha-methylhistamine, CHO cell membranes, SPA); conditions: Table B, binding constant as letter class
T2 construct: expressed in transfected cells
Outline: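 CHO cell membranes expressing human H3 (10 μg protein/well) incubated 4 h at room temperature, in the dark, with ~1 nM [3H]-N-alpha-methylhistamine, compounds (0.01 nM-30 μM) and SPA beads in 50 mM Tris HCl pH 7.4, 5 mM MgCl2, 0.1% BSA. Non-specific binding defined with 10 μM clobenpropit.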

T2 sequence (Q9Y5N1 whole entry): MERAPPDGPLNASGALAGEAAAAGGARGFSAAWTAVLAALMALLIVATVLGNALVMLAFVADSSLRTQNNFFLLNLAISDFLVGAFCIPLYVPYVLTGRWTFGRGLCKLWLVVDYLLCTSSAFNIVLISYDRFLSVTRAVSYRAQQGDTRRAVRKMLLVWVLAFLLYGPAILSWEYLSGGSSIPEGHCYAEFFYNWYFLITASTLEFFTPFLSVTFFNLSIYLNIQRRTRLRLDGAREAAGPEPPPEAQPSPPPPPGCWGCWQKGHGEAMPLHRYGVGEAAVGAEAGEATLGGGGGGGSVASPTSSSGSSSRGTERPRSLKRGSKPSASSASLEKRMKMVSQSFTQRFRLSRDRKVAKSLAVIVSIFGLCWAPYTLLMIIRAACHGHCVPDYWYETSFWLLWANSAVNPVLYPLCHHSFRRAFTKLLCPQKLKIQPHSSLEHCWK
T1 sequence (Q9QYN8 whole entry): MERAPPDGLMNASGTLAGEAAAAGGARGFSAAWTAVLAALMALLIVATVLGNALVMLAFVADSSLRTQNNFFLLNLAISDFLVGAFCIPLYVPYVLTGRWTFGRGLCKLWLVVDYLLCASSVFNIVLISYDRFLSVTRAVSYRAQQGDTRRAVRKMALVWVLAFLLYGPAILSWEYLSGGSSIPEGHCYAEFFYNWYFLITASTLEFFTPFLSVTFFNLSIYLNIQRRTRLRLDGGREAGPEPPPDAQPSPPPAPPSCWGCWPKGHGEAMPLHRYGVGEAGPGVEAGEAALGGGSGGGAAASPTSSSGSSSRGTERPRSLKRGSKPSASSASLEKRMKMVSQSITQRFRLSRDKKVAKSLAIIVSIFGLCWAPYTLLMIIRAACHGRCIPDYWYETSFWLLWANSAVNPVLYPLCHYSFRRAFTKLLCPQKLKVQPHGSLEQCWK

Ki [1]	Ki (human H3 receptor)	SMILES
0.1 to 100 nM	0.1 to 100 nM	Cn1ncc(-c2ccc(OCCCN3CCCCC3)cc2)cc1=O [Example 92, 2-Methyl-5-[4-(3-piperidin-1-yl-propoxy)-phenyl]-2H-pyridazin-3-one]
0.1 to 100 nM	0.1 to 100 nM	Cn1ncc(-c2ccc(OCCCN3CCCCCC3)cc2)cc1=O [Example 93, 5-[4-(3-Azepan-1-yl-propoxy)-phenyl]-2-methyl-2H-pyridazin-3-one]
0.1 to 100 nM	0.1 to 100 nM	O=c1cc(-c2ccc(OCCCN3CCCCC3)cc2)cnn1-c1ccccn1 [Example 95, 5-[4-(3-Piperidin-1-yl-propoxy)-phenyl]-2-pyridin-2-yl-2H-pyridazin-3-one]
0.1 to 100 nM	0.1 to 100 nM	O=c1cc(-c2ccc(OCCCN3CCCCCC3)cc2)cnn1-c1ccccn1 [Example 96, 5-[4-(3-Azepan-1-yl-propoxy)-phenyl]-2-pyridin-2-yl-2H-pyridazin-3-one]
0.1 to 100 nM	0.1 to 100 nM	Cc1cccnc1-n1ncc(-c2ccc(OCCCN3CCC[C@H]3C)cc2)cc1=O [Example 99, 2-(3-Methyl-pyridin-2-yl)-5-{4-[3-((R)-2-methylpyrrolidin-1-yl)-propoxy]-phenyl}-2H-pyridazin-3-one]
0.1 to 100 nM	0.1 to 100 nM	Cc1nn(-c2ccccn2)c(=O)cc1-c1ccc(OCCCN2CCC[C@H]2C)cc1 [Example 100, 6-Methyl-5-{4-[3-((R)-2-methyl-pyrrolidin-1-yl)-propoxy]-phenyl}-2-pyridin-2-yl-2H-pyridazin-3-one]
0.1 to 100 nM	0.1 to 100 nM	Cc1cccnc1-n1nc(C)c(-c2ccc(OCCCN3CCC[C@H]3C)cc2)cc1=O [Example 101, 6-Methyl-2-(3-methyl-pyridin-2-yl)-5-{4-[3-((R)-2-methyl-pyrrolidin-1-yl)-propoxy]-phenyl}-2H-pyridazin-3-one]
0.1 to 100 nM	0.1 to 100 nM	Cc1n[nH]c(=O)cc1-c1ccc(OC2CCN(C3CCC3)CC2)cc1 [Example 103, 5-[4-(1-Cyclobutyl-piperidin-4-yloxy)-phenyl]-6-methyl-2H-pyridazin-3-one]
0.1 to 100 nM	0.1 to 100 nM	Cc1nn(-c2ccccn2)c(=O)cc1-c1ccc(OC2CCN(C3CCC3)CC2)cc1 [Example 104, 5-[4-(1-Cyclobutyl-piperidin-4-yloxy)-phenyl]-6-methyl-2-pyridin-2-yl-2H-pyridazin-3-one]
> 1000 nM	> 1000 nM	O=c1cc(-c2ccc(OC3CCNCC3)cc2)cn[nH]1 [Example 105, 5-[4-(Piperidin-4-yloxy)-phenyl]-2H-pyridazin-3-one]
0.1 to 100 nM	0.1 to 100 nM	O=c1cc(-c2ccc(OC3CCN(C4CCC4)CC3)cc2)cn[nH]1 [Example 106, 5-[4-(1-Cyclobutyl-piperidin-4-yloxy)-phenyl]-2H-pyridazin-3-one]
0.1 to 100 nM	0.1 to 100 nM	Cc1nn(-c2ccsc2)c(=O)cc1-c1ccc(OC2CCN(C3CCC3)CC2)cc1 [Example 107, 5-[4-(1-Cyclobutyl-piperidin-4-yloxy)-phenyl]-6-methyl-2-thiophen-3-yl-2H-pyridazin-3-one]
0.1 to 100 nM	0.1 to 100 nM	Cc1nn(-c2ccsc2)c(=O)cc1-c1ccc(OCCCN2CCC[C@H]2C)cc1 [Example 108, 6-Methyl-5-{4-[3-((R)-2-methyl-pyrrolidin-1-yl)-propoxy]-phenyl}-2-thiophen-3-yl-2H-pyridazin-3-one]
0.1 to 100 nM	0.1 to 100 nM	C[C@@H]1CCCN1CCCOc1ccc(C2=NNC(=O)CC2c2ccccn2)cc1 (stereo partly drawn) [Example 111, 6-{4-[3-((R)-2-Methyl-pyrrolidin-1-yl)-propoxy]-phenyl}-5-pyridin-2-yl-4,5-dihydro-2H-pyridazin-3-one]
> 1000 nM	> 1000 nM	O=C1CC(c2ccccn2)C(c2ccc(OC3CCNCC3)cc2)=NN1 (stereo not drawn) [Example 113, 6-[4-(Piperidin-4-yloxy)-phenyl]-5-pyridin-2-yl-4,5-dihydro-2H-pyridazin-3-one]
0.1 to 100 nM	0.1 to 100 nM	CC1CC(c2ccc(OC3CCN(C4CCC4)CC3)cc2)=NNC1=O (stereo not drawn) [Example 116, 6-[4-(1-Cyclobutyl-piperidin-4-yloxy)-phenyl]-4-methyl-4,5-dihydro-2H-pyridazin-3-one]
0.1 to 100 nM	0.1 to 100 nM	O=c1cc(-c2ccc(OC3CCN(C4CCC4)CC3)nc2)cn[nH]1 [Example 117, 5-[6-(1-Cyclobutyl-piperidin-4-yloxy)-pyridin-3-yl]-2H-pyridazin-3-one]
0.1 to 100 nM	0.1 to 100 nM	C[C@@H]1CCCN1CCCOc1ccc(-c2ccc(=O)n(CCF)n2)cc1 [Example 118, 2-(2-Fluoro-ethyl)-6-{4-[3-((R)-2-methyl-pyrrolidin-1-yl)-propoxy]-phenyl}-2H-pyridazin-3-one]

Ki [1]	Ki (human H3 receptor)	SMILES
0.1 to 100 nM	0.1 to 100 nM	C[C@@H]1CCCN1CCCOc1ccc(-c2ccc(=O)[nH]n2)cc1F [Example 119, 6-{3-Fluoro-4-[3-((R)-2-methyl-pyrrolidin-1-yl)-propoxy]-phenyl}-2H-pyridazin-3-one]
101 to 500 nM	0.1 to 100 nM	O=c1ccc(-c2ccc(OCCCN3CCCCC3)c(F)c2)n[nH]1 [Example 120, 6-[3-Fluoro-4-(3-piperidin-1-yl-propoxy)-phenyl]-2H-pyridazin-3-one]
0.1 to 100 nM	0.1 to 100 nM	CC1CC(c2ccc(OCCCN3CCC[C@H]3C)cc2)=NNC1=O (stereo partly drawn) [Example 121, 4-Methyl-6-{4-[3-((R)-2-methyl-pyrrolidin-1-yl)-propoxy]-phenyl}-4,5-dihydro-2H-pyridazin-3-one]
0.1 to 100 nM	0.1 to 100 nM	Cc1cc(-c2ccc(OCCCN3CCC[C@H]3C)cc2)n[nH]c1=O [Example 122, 4-Methyl-6-{4-[3-((R)-2-methyl-pyrrolidin-1-yl)-propoxy]-phenyl}-2H-pyridazin-3-one]
0.1 to 100 nM	0.1 to 100 nM	Cc1cc(-c2ccc(OCCCN3CCCCC3)cc2)n[nH]c1=O [Example 123, 4-Methyl-6-[4-(3-piperidin-1-yl-propoxy)-phenyl]-2H-pyridazin-3-one]
0.1 to 100 nM	0.1 to 100 nM	Cn1nc(-c2ccc(OCCCN3CCC[C@H]3CO)cc2)c2c(c1=O)CCCC2 [Example 124, 4-{4-[3-((S)-2-Hydroxymethyl-pyrrolidin-1-yl)-propoxy]-phenyl}-2-methyl-5,6,7,8-tetrahydro-2H-phthalazin-1-one]
501 to 1000 nM	101 to 500 nM	C[C@@H]1CCCN1CCCOc1cccc(-c2nn(C)c(=O)c3c2CCC3)c1 [Example 125, 2-Methyl-4-{3-[3-((R)-2-methyl-pyrrolidin-1-yl)-propoxy]-phenyl}-2,5,6,7-tetrahydro-cyclopenta[d]pyridazin-1-one]
501 to 1000 nM	101 to 500 nM	Cn1nc(-c2cccc(OCCCN3CCCCC3)c2)c2c(c1=O)CCC2 [Example 126, 2-Methyl-4-[3-(3-piperidin-1-yl-propoxy)-phenyl]-2,5,6,7-tetrahydro-cyclopenta[d]pyridazin-1-one]
501 to 1000 nM	501 to 1000 nM	Cn1nc(-c2cccc(OCCCN3CCC[C@H]3CO)c2)c2c(c1=O)CCC2 [Example 127, 4-{3-[3-((S)-2-Hydroxymethyl-pyrrolidin-1-yl)-propoxy]-phenyl}-2-methyl-2,5,6,7-tetrahydro-cyclopenta[d]pyridazin-1-one]
0.1 to 100 nM	0.1 to 100 nM	CC(C)n1ncc(-c2ccc(OCCCN3CCC[C@H]3C)cc2)cc1=O [Example 128, 2-Isopropyl-5-{4-[3-((R)-2-methyl-pyrrolidin-1-yl)-propoxy]-phenyl}-2H-pyridazin-3-one]
0.1 to 100 nM	0.1 to 100 nM	C[C@@H]1CCCN1CCCOc1ccc(-c2ccc(=O)n(-c3ncccn3)n2)cc1 [Example 138, 6-{4-[3-((R)-2-Methyl-pyrrolidin-1-yl)-propoxy]-phenyl}-2-pyrimidin-2-yl-2H-pyridazin-3-one]
0.1 to 100 nM	0.1 to 100 nM	O=c1ccc(-c2ccc(OC3CCN(C4CCCC4)CC3)nc2)n[nH]1 [Example 139, 6-[6-(1-Cyclopentyl-piperidin-4-yloxy)-pyridin-3-yl]-2H-pyridazin-3-one]
501 to 1000 nM and 0.1 to 100 nM	0.1 to 100 nM	Cn1nc(-c2ccc(OC3CCN(C4CCCC4)CC3)nc2)ccc1=O [Example 143, 6-[6-(1-Cyclopentyl-piperidin-4-yloxy)-pyridin-3-yl]-2-methyl-2H-pyridazin-3-one]
0.1 to 100 nM	0.1 to 100 nM	Cn1nc(-c2ccc(OC3CCN(C4CCC4)CC3)nc2)ccc1=O [Example 144, 6-[6-(1-Cyclobutyl-piperidin-4-yloxy)-pyridin-3-yl]-2-methyl-2H-pyridazin-3-one]
0.1 to 100 nM	0.1 to 100 nM	CC1(C)CC(c2ccc(OC3CCN(C4CCC4)CC3)nc2)=NNC1=O [Example 148, 6-[6-(1-Cyclobutyl-piperidin-4-yloxy)-pyridin-3-yl]-4,4-dimethyl-4,5-dihydro-2H-pyridazin-3-one]
0.1 to 100 nM	0.1 to 100 nM	O=c1ccc(-c2ccc(OC3CCN(C4CCC4)CC3)nc2)nn1-c1ccccn1 [Example 149, 6-[6-(1-Cyclobutyl-piperidin-4-yloxy)-pyridin-3-yl]-2-pyridin-2-yl-2H-pyridazin-3-one]
0.1 to 100 nM	0.1 to 100 nM	O=c1ccc(-c2ccc(OC3CCN(C4CCC4)CC3)cc2)nn1-c1ccccn1 [Example 157]
0.1 to 100 nM	0.1 to 100 nM	O=C1CCC(c2ccc(OC3CCN(C4CCC4)CC3)cc2)=NN1c1ccccn1 [Example 158, 6-[4-(1-Cyclobutyl-piperidin-4-yloxy)phenyl]-2-pyridin-2-yl-4,5-dihydro-2H-pyridazin-3-one]
